Our source for the melting point values is a melting point compilation (Tetko et al.; mined from patent text by program, amines drawn as free bases though some values may be those of a salt).

Residues, ends and D or L forms follow the SMILES beside them. *: point of attachment. Cbz = O=C(OCc1ccccc1)*; Boc = CC(C)(C)OC(=O)*

The compound `COc1ccc(S(=O)(=O)C(Nc2c(Br)cc(C)cc2C(=O)O)c2cccnc2)cc1` (configuration not stated) showed a melting point of 198 °C. To `CCOC(=O)C(CC(C)C)NC(=O)C(Cc1ccccc1)NC(=O)C(CCCCNC(=O)OCc1ccccc1)NC(=O)OC(C)(C)C` (stereo not drawn) (Boc-Lys(Cbz)-Phe-Leu-OEt; configuration not given here) belongs 135 to 136 °C; to `O=C(O)CCCCCNC(=O)Cc1ccsc1`, 78.6 to 79.5 °C. To `Oc1ncnc2c1CCOc1ccccc1-2` belongs 241 to 243 °C. To `CCCCc1nc2c(N)nc3ccc(OCC(=O)N4CCOCC4)cc3c2n1C` belongs 257 °C. As for `CCOC(=O)N=C(N)c1ccc(OCc2cccc(COc3ccc(C(C)(C)c4ccccc4)cc3)c2)cc1`, the melting point worked out at 99 °C. To `CCOC(=O)c1nnc2n1-c1ccccc1C(c1ccccc1)=NC2` belongs 205 to 206 °C; to `Cc1oc(-c2ccccc2)nc1COc1ccc(CSc2nc(CCC(=O)O)n[nH]2)cc1`, 170 to 171 °C. To `Cc1c(Cl)c(Oc2c(Cl)cc(C(F)(F)F)cc2Cl)nn1C(=O)NCCCl` belongs 141 to 143 °C. `N#Cc1cnc2cc(C#CCCCN3CCOCC3)ccc2c1Nc1ccc(Cl)cc1Cl`: the melting point fell in the range of 131 to 133 °C. Take `Cn1cnc2nc(-c3ccc(Cl)cc3)nn2c1=S`: the melting point lay within 283 to 285 °C.

`COC(=O)Nc1nc(-c2ccccc2)c(-c2nc3ccccc3c(=O)n2-c2ccc(C)cc2)s1` displayed a melting point of more than 275 °C. To `CCCCc1nc2sccc2n1Cc1ccc(-c2ccccc2C(=O)O)cc1` belongs 203 °C. To `CCCc1c(CSc2ncccc2OCC(=O)OCC)ccc(C(C)=O)c1O` belongs 98 to 100 °C; to `OCCCC1=NN(c2nc3ccccc3s2)C(O)(c2ccc(Cl)cc2)C1` (configuration not stated), 132 to 134 °C. To `Fc1nc(Oc2ccc(CCNc3ncnc4nccnc34)cc2)c(F)c(C(F)(F)F)c1F` belongs 103 to 108 °C; to `O=C(c1ccccc1)c1cc2ccncc2[nH]1`, 245 to 247 °C.

Turning to `COc1ccc(-n2nnc3ccc(-c4nnc(CCc5cccc(F)c5)o4)cc32)cc1`, the melting point is 125 to 126 °C. To `CSc1nc(C)c(Cc2ccc(Cl)cc2)c(=O)[nH]1` belongs 248 to 251 °C.

In turn, `CC(=O)NCC1CN(c2ccc(N3CCC(n4ccnn4)C(F)C3)c(F)c2)C(=O)O1` (configuration not stated) had a melting point of 158 to 160 °C.

`Cc1n[nH]c2c1C(=O)CC(c1ccccc1Cl)C2` (configuration not stated) returned a melting point of 168 to 170 °C. As to `Clc1ccc(O[C@@H]2CCNC[C@H]2c2ccccc2)cc1` (relative stereo), the melting point fell in the range of 102 to 103 °C. To `COc1cc2c(cc1C(F)(F)F)N(C(=O)Nc1ccc(C)c(-c3cnccc3C)c1)CC2` belongs 138 to 140 °C; to `CN(Cc1cc(C(F)(F)F)cc(C(F)(F)F)c1)C1CCN(c2ccc(OC[C@@]3(C)Cn4cc([N+](=O)[O-])nc4O3)cc2)CC1`, 194 to 195 °C; to `CCCOc1ccc(F)cc1-c1ccc(C(N)=O)c(=O)[nH]1`, 223 to 224 °C. To `Nc1ccc(C(CC2CCCC2)C(=O)Nc2nccs2)cc1` (configuration not stated) belongs 102 to 107 °C.

As for `CC(C)c1cc(C(=O)Nc2cc(F)c(C(=O)O)c(F)c2)sc1C(C)C`, the melting point fell in the range of 218 to 219 °C. `COc1cc2ncc(C#N)c(C)c2cc1OCc1ccccc1`: the melting point fell in the range of 165 to 172 °C.

`Cc1c(C(=O)NCc2ccc3c(Br)c(OCc4nnn[nH]4)ccc3c2)oc2ccccc12` showed a melting point of 212 to 215 °C. For the compound `NC(=O)c1[nH]c2ccccc2c1Cl`, the melting point was 191 to 192 °C. To `COC(=O)c1ccc(OC(=O)c2ccccc2)cc1O` belongs 103 °C; to `Cc1cc(=S)c2c(O)cc(OC(C)C)cc2o1`, 119 to 120 °C. To `ClCCOc1ccccc1OCCCl` belongs 55 to 56.5 °C. To `CC1CNCCNCCNCCNCCN1` (configuration not stated) belongs 73 to 75 °C; to `CC12CCC(O)CC1=CCC1C2CCC2(C)C(n3ncnn3)=CCC12` (configuration not stated), 195 to 198 °C; to `O=C(N1CCN(c2ccccc2)CC1)N1CC(Oc2ccc(F)cc2)C1`, 124 to 125 °C. On to `CNC(=O)c1cccc(F)c1Nc1nc(Nc2ccc3c(c2)C(=O)NCCC3)ncc1Cl`, for which the melting point amounted to 200 °C. To `Cc1ccccc1C(=O)c1ccc(Nc2ccccc2NC(=O)CO)cc1Cl` belongs 127 to 129 °C; to `COC(=O)CCCCCc1nn(-c2ccc([N+](=O)[O-])cc2)c2c1CCCC2`, 60 to 61 °C; to `Oc1nc(-c2ccc(Cl)cc2)nc2c1CCCC2`, 255 °C. `CCCC(=O)c1cnc2c(OC)csc2c1Nc1ccc(O)cc1C` gave a melting point of 255 to 257 °C. To `COc1cc(C#N)ccc1-c1ccnc(-c2ccc(C#N)cc2)n1` belongs 239 to 240 °C; to `CS(=O)(=O)c1ccc(-c2cnn(Cc3ccc([N+](=O)[O-])cc3)c(=O)c2-c2ccc(F)cc2)cc1`, 183 to 184 °C.

Turning to `OCc1ccc(-c2ccccc2-c2nnn[nH]2)cc1`, the melting point is 132 to 135 °C. The compound `O=C(Nc1ccc(F)cc1F)Oc1ccccc1` registered a melting point of 82 to 84 °C.

The compound `CC(=O)N1c2ccc(-c3ccc(C(=O)O)cc3)cc2C(Nc2ccccc2)CC1C` (configuration not stated) registered a melting point of 246 °C.

As to `C=CC1CC1(C(C)=O)C(=O)Nc1ccccc1` (configuration not stated), the melting point is 104 to 105 °C. To `COc1ccccc1Sc1c(Cl)ncnc1NS(=O)(=O)c1ccc(C(C)(C)C)cc1` belongs 186 °C. To `COC(=O)c1cc(C=O)cc([N+](=O)[O-])c1` belongs 85 °C; to `CCc1cc(NC(C)=O)cc(CC)n1`, 74 to 78 °C.

As for `CN(C)c1ccc(C2SCC(C(=O)O)N2C(=O)OC(C)(C)C)cc1` (mixture of isomers), the melting point came out at 175 °C. To `O=C(Oc1ccccc1OC(=O)c1ccccc1)c1ccccc1` belongs 75 to 77 °C. Consider `C#Cc1cnn2c(C(F)(F)F)cc(-c3cccc(C(F)(F)F)c3)nc12`, for which the melting point is 154 °C. As for `Fc1ccc(C2=C(c3ccccc3)N(C(F)(F)F)CO2)cc1F`, the melting point is 146 to 148 °C.

As for `CCOc1cc2c(Nc3ccc(OC)cc3)c(C#N)cnc2nc1C`, the melting point was in the range of 190 to 192 °C. `O=C1Cc2ccccc2C(c2c(F)cccc2Cl)N1` (configuration not stated) displayed a melting point of 249 to 252 °C. To `COc1ccc(-c2sc3c(c2C)c(=O)c(C#N)cn3Cc2ccccc2F)cc1` belongs 215 to 216 °C; to `CSC(Nc1cccc(C#N)c1)=C(C#N)S(=O)(=O)c1ccc(Cl)cc1`, 168 to 170 °C; to `CC(C)(C)OC(=O)n1nnc(-c2ccccc2)c1I`, 87 to 90 °C. To `O=c1[nH]c2sc(I)nc2c2ccccc12` belongs more than 250 °C; to `CC1(C)CC(Oc2ccc(O)nn2)c2cc(C#N)ccc2O1` (configuration not stated), 221 to 224 °C; to `O=C(Nc1ccc(C(=O)N2CCc3cn[nH]c3-c3ncccc32)c(Cl)c1)c1ccccc1-c1ccccc1`, 181 to 192 °C.

As usually defined, the melting point is the temperature, or range, at which the solid turns liquid.
